ChEMBL document CHEMBL1140900, “Synthesis, biological evaluation, and docking studies of N-substituted acetamidines as selective inhibitors of inducible nitric oxide synthase” (J Med Chem, 2009)

What was measured:
[1] = target: Nitric oxide synthase, inducible (Homo sapiens, UniProt P35228); experiment: Inhibition of iNOS in LPS treated human THP1 cell homogenate assessed as conversion of L-[2,3-3H]arginine to L-[2,3-3H]citrulline pre-incubated 1 hr before LPS challenge by whole cell assay; type: cell-based, THP-1
Chain of Nitric oxide synthase, inducible (P35228 whole entry): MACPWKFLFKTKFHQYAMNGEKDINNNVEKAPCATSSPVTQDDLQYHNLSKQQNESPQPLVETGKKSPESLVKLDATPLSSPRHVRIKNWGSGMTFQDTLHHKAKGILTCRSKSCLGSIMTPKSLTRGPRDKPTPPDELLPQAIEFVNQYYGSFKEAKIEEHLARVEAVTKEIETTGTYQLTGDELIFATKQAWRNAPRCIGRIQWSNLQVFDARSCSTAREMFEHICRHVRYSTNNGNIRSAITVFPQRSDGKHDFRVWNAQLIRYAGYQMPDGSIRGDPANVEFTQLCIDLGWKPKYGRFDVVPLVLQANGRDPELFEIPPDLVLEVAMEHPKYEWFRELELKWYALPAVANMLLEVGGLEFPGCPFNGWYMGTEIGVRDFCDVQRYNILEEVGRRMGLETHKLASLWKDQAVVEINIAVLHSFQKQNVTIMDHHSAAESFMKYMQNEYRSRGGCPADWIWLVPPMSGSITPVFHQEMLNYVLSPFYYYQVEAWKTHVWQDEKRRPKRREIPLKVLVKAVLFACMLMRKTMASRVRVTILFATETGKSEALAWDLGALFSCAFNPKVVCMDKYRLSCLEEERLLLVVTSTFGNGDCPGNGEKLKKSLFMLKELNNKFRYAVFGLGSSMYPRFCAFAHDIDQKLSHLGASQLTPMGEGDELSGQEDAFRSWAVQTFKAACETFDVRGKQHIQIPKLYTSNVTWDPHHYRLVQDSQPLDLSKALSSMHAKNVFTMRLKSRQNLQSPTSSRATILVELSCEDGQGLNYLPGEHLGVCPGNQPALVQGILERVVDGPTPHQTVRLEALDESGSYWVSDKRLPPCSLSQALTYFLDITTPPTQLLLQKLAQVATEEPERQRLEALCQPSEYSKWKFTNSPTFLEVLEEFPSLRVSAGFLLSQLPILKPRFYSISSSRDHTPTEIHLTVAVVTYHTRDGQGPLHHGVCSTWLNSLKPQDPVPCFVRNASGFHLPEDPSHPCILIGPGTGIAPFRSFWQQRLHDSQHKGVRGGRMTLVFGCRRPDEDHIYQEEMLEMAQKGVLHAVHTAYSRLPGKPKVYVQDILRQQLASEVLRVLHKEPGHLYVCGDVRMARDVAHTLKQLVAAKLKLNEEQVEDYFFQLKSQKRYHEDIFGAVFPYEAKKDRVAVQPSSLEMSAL

[2] = organism: Homo sapiens; experiment: Selectivity ratio of IC50 for human eNOS to IC50 for human iNOS
[3] = target: T1, Nitric oxide synthase 3 (Homo sapiens, UniProt P29474); experiment: Inhibition of eNOS in LPS treated human THP1 cell homogenate assessed as conversion of L-[2,3-3H]arginine to L-[2,3-3H]citrulline pre-incubated 1 hr before LPS challenge by whole cell assay; type: cell-based, THP-1
T1 sequence (P29474 whole entry): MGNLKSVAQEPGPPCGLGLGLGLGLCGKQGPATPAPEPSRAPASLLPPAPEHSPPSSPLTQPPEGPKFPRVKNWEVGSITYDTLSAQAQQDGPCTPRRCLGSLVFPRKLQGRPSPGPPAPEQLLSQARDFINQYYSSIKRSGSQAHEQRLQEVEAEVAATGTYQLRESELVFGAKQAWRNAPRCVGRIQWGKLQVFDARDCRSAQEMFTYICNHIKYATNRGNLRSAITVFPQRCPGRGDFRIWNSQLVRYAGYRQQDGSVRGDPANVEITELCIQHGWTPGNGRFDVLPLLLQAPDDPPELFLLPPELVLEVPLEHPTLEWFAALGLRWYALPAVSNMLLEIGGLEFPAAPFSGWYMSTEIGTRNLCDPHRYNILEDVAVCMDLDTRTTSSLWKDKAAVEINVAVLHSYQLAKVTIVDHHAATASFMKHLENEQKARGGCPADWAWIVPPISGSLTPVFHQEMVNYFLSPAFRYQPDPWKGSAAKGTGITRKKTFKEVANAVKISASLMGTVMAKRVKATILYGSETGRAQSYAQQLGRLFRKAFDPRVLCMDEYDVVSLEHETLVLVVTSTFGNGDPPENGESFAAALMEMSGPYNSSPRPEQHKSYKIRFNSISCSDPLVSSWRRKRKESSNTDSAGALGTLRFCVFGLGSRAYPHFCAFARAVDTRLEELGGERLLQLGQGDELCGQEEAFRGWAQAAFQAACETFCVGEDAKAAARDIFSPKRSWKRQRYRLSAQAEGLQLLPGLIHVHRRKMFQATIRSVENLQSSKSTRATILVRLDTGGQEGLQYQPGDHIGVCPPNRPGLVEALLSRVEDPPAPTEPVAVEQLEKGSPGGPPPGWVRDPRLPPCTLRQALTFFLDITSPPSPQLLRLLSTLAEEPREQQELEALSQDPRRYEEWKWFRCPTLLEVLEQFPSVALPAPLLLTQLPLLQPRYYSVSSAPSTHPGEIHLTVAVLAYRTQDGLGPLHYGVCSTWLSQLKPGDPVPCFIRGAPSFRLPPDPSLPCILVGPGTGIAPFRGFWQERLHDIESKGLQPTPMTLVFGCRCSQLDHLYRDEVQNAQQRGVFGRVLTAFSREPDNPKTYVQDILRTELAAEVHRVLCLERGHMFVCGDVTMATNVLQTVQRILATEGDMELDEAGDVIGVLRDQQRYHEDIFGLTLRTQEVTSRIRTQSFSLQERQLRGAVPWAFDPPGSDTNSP

| Structure (SMILES) | IC50 [1] | Ratio IC50 [2] | IC50 [3] |
| --- | --- | --- | --- |
| CCC(NC(C)=N)c1ccccc1 (racemic) | 0.25 µM | 320 | 80 µM |
| CC(=N)N[C@@H](C)c1ccccc1 | 0.45 µM | 666 | 300 µM |
| CC(=N)NCc1cccc(CNS(=O)(=O)c2ccc(C)cc2)c1 | 0.5 µM | 600 | 300 µM |
| CC(=N)NCc1ccccc1 | 0.2 µM | 1750 | 350 µM |
| CCOC(=O)N1CCC(NC(C)=N)CC1 | 0.25 µM | 360 | 90 µM |
| CC(=N)NCc1cccc(CNCc2ccncc2)c1 | 0.35 µM | 57 | 20 µM |
